Experimental data reported in patent publication US20090004185A1, “AMINO-SUBSTITUTED QUINAZOLINE DERIVATIVES AS INHIBITORS OF BETA-CATENIN/TCF-4 PATHWAY AND CANCER TREATMENT AGENTS” (WYETH, priority 2007, published 2009).
Blank lines part the entries; values can stand above or below the compound they belong to.

Assays:
SV40-Luc = SV40-Luc control luciferase reporter assay, SV 5A8 cell line (SV40-Luc and SV40-R-Luc), control for non-specific inhibitors; assay type: cell-based, human; conditions: SV 5A8 cells derived from SW480, 24 hours of incubation with compound, ratio Firefly/Renilla luciferase
Summary of the method: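 SW480-derived lines with integrated reporters: SV 5A8 (SV40 firefly plus SV40 Renilla), Tcf 33.13 and Tcf 22C11 (Tcf-4 firefly plus SV40 Renilla). Cells seeded 1×10^4/well, compounds added 20-24 h later at titrated concentrations (final DMSO 0.316%) for 24 h. Firefly/Renilla ratio, as % of control, gave IC50 (nM).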

β-catenin/Tcf-4 = test: cells; assay type: cell-based; conditions: 24 hours of incubation with compound, ratio Firefly/Renilla luciferase
Summary of the method: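 SW480-derived lines with integrated reporters (Tcf-4-driven firefly luciferase; SV40 firefly as specificity control; SV40 Renilla for cell number/toxicity), treated 24 hours with titrated compounds, final 0.316% DMSO. Dual-luciferase read-out; firefly/Renilla ratio as % of control, duplicate plates, IC50 (nM) from curve fit.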

[1] = Homo sapiens, SW480, 24 h, Tcf 33.13 cells derived from SW480
[2] = Homo sapiens, Tcf22C11, 24 h, Tcf 22C11 cells derived from SW480
[3] = Tcf 22C11 cells derived from SW480
[4] = Tcf 33.13 cells derived from SW480

SMILES: Cc1ccc2nc(N3C[C@@H](C)N[C@@H](C)C3)nc(NCc3ccc(NC(=O)C4CCN(Cc5ccccc5)CC4)cc3)c2c1 [Example 78, 1-benzyl-N-{4-[({2-[(3R,5S)-3,5-dimethylpiperazin-1-yl]-6-methylquinazolin-4-yl}amino)methyl]phenyl}piperidine-4-carboxamide]
IC50 (SV40-Luc; Homo sapiens, SV5A8, 24 h): > 17300 nM | IC50 (β-catenin/Tcf-4; [1]): 955 nM | IC50 (β-catenin/Tcf-4; [2]): 1390 nM

SMILES: Cc1ccc2c(NCc3ccc(NC(=O)c4ccc(F)cc4)cc3)nc(N3CCN(c4ccccc4)CC3)nc2c1 [Example 212, 4-fluoro-N-[4-({[7-methyl-2-(4-phenylpiperazin-1-yl)quinazolin-4-yl]amino}methyl)phenyl]benzamide]
IC50 (SV40-Luc; Homo sapiens, SV5A8, 24 h): > 12900 nM | IC50 (β-catenin/Tcf-4; [1]): 2680 nM | IC50 (β-catenin/Tcf-4; [2]): 3100 nM

SMILES: CN(C)c1cccc(-c2ccc3nc(N(C)C)nc(NCc4ccc(C(=O)Nc5ccc(F)cc5)cc4)c3c2)c1 [Example 170]
IC50 (SV40-Luc): > 2340 nM | IC50 (β-catenin/Tcf-4; [3]): 692 nM | IC50 (β-catenin/Tcf-4; [4]): 806 nM

SMILES: CNc1nc(NCc2ccc(NC(=O)c3ccccc3F)cc2)c2cc(C)ccc2n1 [Example 47, 2-fluoro-N-[4-({[6-methyl-2-(methylamino)quinazolin-4-yl]amino}methyl)phenyl]benzamide]
IC50 (SV40-Luc; Homo sapiens, SV5A8, 24 h): > 24100 nM | IC50 (β-catenin/Tcf-4; [1]): 12800 nM | IC50 (β-catenin/Tcf-4; [2]): 12000 nM

SMILES: Cc1ccc2c(NCc3ccc(NC(=O)c4ccc(F)cc4)cc3)nc(N3CCN(CC(=O)NC(C)C)CC3)nc2c1 [Example 219, 4-fluoro-N-(4-{[(2-{4-[2-(isopropylamino)-2-oxoethyl]piperazin-1-yl}-7-methylquinazolin-4-yl)amino]methyl}phenyl)benzamide]
IC50 (SV40-Luc; Homo sapiens, SV5A8, 24 h): > 14600 nM | IC50 (β-catenin/Tcf-4; [1]): 1420 nM | IC50 (β-catenin/Tcf-4; [2]): 1800 nM

SMILES: CN(C)c1nc(NCc2ccc(NC(=O)c3ccc(F)cc3)cc2)c2cc(/C=C\c3ccccc3)ccc2n1 [Example 171]
IC50 (SV40-Luc): > 19300 nM | IC50 (β-catenin/Tcf-4; [3]): 2940 nM | IC50 (β-catenin/Tcf-4; [4]): 4280 nM

SMILES: Cc1cc(C)c2nc(N(C)C)nc(NCc3ccc(NC(=O)c4ccc(F)cc4)cc3)c2c1 [Example 52, N-[4-({[2-(dimethylamino)-6,8-dimethylquinazolin-4-yl]amino}methyl)phenyl]-4-fluorobenzamide]
IC50 (SV40-Luc; Homo sapiens, SV5A8, 24 h): > 22500 nM | IC50 (β-catenin/Tcf-4; [1]): 1310 nM | IC50 (β-catenin/Tcf-4; [2]): 1650 nM

SMILES: Cc1ccc2c(NCc3ccc(NC(=O)C4CCN(Cc5ccco5)CC4)cc3)nc(N(C)C)nc2c1 [Example 246, N-[4-({[2-(dimethylamino)-7-methylquinazolin-4-yl]amino}methyl)phenyl]-1-(2-furylmethyl)piperidine-4-carboxamide]
IC50 (SV40-Luc; Homo sapiens, SV5A8, 24 h): > 20100 nM | IC50 (β-catenin/Tcf-4; [1]): 1930 nM | IC50 (β-catenin/Tcf-4; [2]): 1830 nM

SMILES: CNc1nc(NCc2ccc(NC(=O)C3CCN(Cc4ccc(F)cc4)CC3)cc2)c2cc(C(F)(F)F)ccc2n1 [Example 160]
IC50 (SV40-Luc): > 4410 nM | IC50 (β-catenin/Tcf-4; [3]): 1450 nM | IC50 (β-catenin/Tcf-4; [4]): > 2210 nM

SMILES: CNc1nc(NCc2ccc(NC(=O)c3ccc(Cl)cc3Cl)cc2)c2cc(C)ccc2n1 [Example 19, 2,4-dichloro-N-[4-({[6-methyl-2-(methylamino)quinazolin-4-yl]amino}methyl)phenyl]benzamide]
IC50 (SV40-Luc; Homo sapiens, SV5A8, 24 h): > 21400 nM | IC50 (β-catenin/Tcf-4; [1]): 12800 nM | IC50 (β-catenin/Tcf-4; [2]): > 21400 nM

SMILES: Cc1ccc2nc(N(C)C)nc(NCc3ccc(NC(=O)c4ccc(F)cc4)cc3)c2c1 [Example 39, N-[4-({[2-(dimethylamino)-6-methylquinazolin-4-yl]amino}methyl)phenyl]-4-fluorobenzamide]
IC50 (SV40-Luc): > 5820 nM | IC50 (β-catenin/Tcf-4; [3]): 428 nM | IC50 (β-catenin/Tcf-4; [4]): 217 nM

SMILES: CN(C)c1nc(NCc2ccc(NC(=O)c3ccc(F)cc3)cc2)c2ccc(-c3ccc(C=O)cc3)cc2n1 [Example 99, N-[4-({[2-(dimethylamino)-7-(4-formylphenyl)quinazolin-4-yl]amino}methyl)phenyl]-4-fluorobenzamide]
IC50 (SV40-Luc; Homo sapiens, SV5A8, 24 h): > 17900 nM | IC50 (β-catenin/Tcf-4; [1]): 2680 nM | IC50 (β-catenin/Tcf-4; [2]): 6820 nM

Second part, the compound after the results:

IC50 (SV40-Luc; Homo sapiens, SV5A8, 24 h): > 9990 nM | IC50 (β-catenin/Tcf-4; [1]): 809 nM | IC50 (β-catenin/Tcf-4; [2]): 754 nM
SMILES: Cc1ccc2c(NCc3ccc(NC(=O)C4CCN(C5CCCCC5)CC4)cc3)nc(N(C)C)nc2c1 [Example 245, 1-cyclohexyl-N-[4-({[2-(dimethylamino)-7-methylquinazolin-4-yl]amino}methyl)phenyl]piperidine-4-carboxamide]

IC50 (SV40-Luc; Homo sapiens, SV5A8, 24 h): > 5920 nM | IC50 (β-catenin/Tcf-4; [1]): 2960 nM | IC50 (β-catenin/Tcf-4; [2]): 2710 nM
SMILES: CNc1nc(NCc2ccc(NC(=O)c3ccc(C#N)cc3)cc2)c2cc(C)ccc2n1 [Example 25, 4-cyano-N-[4-({[6-methyl-2-(methylamino)quinazolin-4-yl]amino}methyl)phenyl]benzamide]

IC50 (SV40-Luc; Homo sapiens, SV5A8, 24 h): > 11300 nM | IC50 (β-catenin/Tcf-4; [1]): 319 nM | IC50 (β-catenin/Tcf-4; [2]): 439 nM
SMILES: Cc1ccc2c(N[C@@H](C)c3ccc(NC(=O)c4ccc(Cl)nc4)cc3)nc(N(C)C)nc2c1 [Example 269, (S)-6-chloro-N-(4-(1-(2-(dimethylamino)-7-methylquinazolin-4-ylamino)ethyl)phenyl)nicotinamide]

IC50 (SV40-Luc; Homo sapiens, SV5A8, 24 h): > 4110 nM | IC50 (β-catenin/Tcf-4; [1]): 305 nM | IC50 (β-catenin/Tcf-4; [2]): 462 nM
SMILES: C/C=C\c1ccc2c(NCc3ccc(NC(=O)C4CCN(Cc5ccccc5)CC4)cc3)nc(N(C)C)nc2c1 [Example 153, 1-benzyl-N-{4-[({2-(dimethylamino)-7-[(1Z)-prop-1-en-1-yl]quinazolin-4-yl}amino)methyl]phenyl}piperidine-4-carboxamide]

IC50 (SV40-Luc; Homo sapiens, SV5A8, 24 h): > 7890 nM | IC50 (β-catenin/Tcf-4; [1]): 215 nM | IC50 (β-catenin/Tcf-4; [2]): 521 nM
SMILES: Cc1ccc2c(NCc3ccc(NC(=O)C4CCN(Cc5ccc(F)cc5Cl)CC4)cc3)nc(N(C)C)nc2c1 [Example 258, 1-(2-chloro-4-fluorobenzyl)-N-[4-({[2-(dimethylamino)-7-methylquinazolin-4-yl]amino}methyl)phenyl]piperidine-4-carboxamide]

IC50 (SV40-Luc; Homo sapiens, SV5A8, 24 h): > 8100 nM | IC50 (β-catenin/Tcf-4; [1]): 415 nM | IC50 (β-catenin/Tcf-4; [2]): 573 nM
SMILES: Cc1ccc2c(NCc3ccc(NC(=O)C4CCN(Cc5ccc(Cl)nc5)CC4)cc3)nc(N(C)C)nc2c1 [Example 259, 1-[(6-chloropyridin-3-yl)methyl]-N-[4-({[2-(dimethylamino)-7-methylquinazolin-4-yl]amino}methyl)phenyl]piperidine-4-carboxamide]

IC50 (SV40-Luc; Homo sapiens, SV5A8, 24 h): > 3010 nM | IC50 (β-catenin/Tcf-4; [1]): 766 nM | IC50 (β-catenin/Tcf-4; [2]): 1490 nM
SMILES: CN(C)c1nc(NCc2ccc(NC(=O)c3ccc(F)cc3)cc2)c2ccccc2n1 [Example 113, N-[4-({[2-(dimethylamino)quinazolin-4-yl]amino}methyl)phenyl]-4-fluorobenzamide]

IC50 (SV40-Luc; Homo sapiens, SV5A8, 24 h): > 2330 nM | IC50 (β-catenin/Tcf-4; [1]): 453 nM | IC50 (β-catenin/Tcf-4; [2]): 229 nM
SMILES: CN(C)c1ccc(-c2ccc3nc(N(C)C)nc(NCc4ccc(NC(=O)c5ccc(F)cc5)cc4)c3c2)cn1 [Example 59, N-{4-[({2-(dimethylamino)-6-[6-(dimethylamino)pyridin-3-yl]quinazolin-4-yl}amino)methyl]phenyl}-4-fluorobenzamide]

IC50 (SV40-Luc; Homo sapiens, SV5A8, 24 h): > 2760 nM | IC50 (β-catenin/Tcf-4; [1]): 1820 nM | IC50 (β-catenin/Tcf-4; [2]): > 2760 nM
SMILES: CNc1nc(NCc2ccc(NC(=O)c3ccc(Cl)cc3Cl)cc2)c2ccccc2n1 [Example 16, 2,4-dichloro-N-[4-({[2-(methylamino)quinazolin-4-yl]amino}methyl)phenyl]benzamide]

IC50 (SV40-Luc; Homo sapiens, SV5A8, 24 h): > 5590 nM | IC50 (β-catenin/Tcf-4; [1]): 1720 nM | IC50 (β-catenin/Tcf-4; [2]): 1880 nM
SMILES: CNc1nc(NCc2ccc(NC(=O)c3ccc(Cl)nc3)cc2)c2cc(C)cc(C)c2n1 [Example 23, 6-chloro-N-[4-({[6,8-dimethyl-2-(methylamino)quinazolin-4-yl]amino}methyl)phenyl]nicotinamide]

IC50 (SV40-Luc; Homo sapiens, SV5A8, 24 h): > 4590 nM | IC50 (β-catenin/Tcf-4; [1]): 85 nM | IC50 (β-catenin/Tcf-4; [2]): 168 nM
SMILES: Cc1ccc2c(NCc3ccc(NC(=O)C4CCN(Cc5ccc(F)cc5F)CC4)cc3)nc(N(C)C)nc2c1 [Example 254, 1-(2,4-difluorobenzyl)-N-[4-({[2-(dimethylamino)-7-methylquinazolin-4-yl]amino}methyl)phenyl]piperidine-4-carboxamide]

IC50 (SV40-Luc; Homo sapiens, SV5A8, 24 h): > 11300 nM | IC50 (β-catenin/Tcf-4; [1]): 1260 nM | IC50 (β-catenin/Tcf-4; [2]): 2290 nM
SMILES: CCN(CC)c1nc(NCc2ccc(NC(=O)c3ccc(F)cc3)cc2)c2ccccc2n1 [Example 122, N-[4-({[2-(diethylamino)quinazolin-4-yl]amino}methyl)phenyl]-4-fluorobenzamide]

IC50 (SV40-Luc; Homo sapiens, SV5A8, 24 h): > 7870 nM | IC50 (β-catenin/Tcf-4; [1]): 203 nM | IC50 (β-catenin/Tcf-4; [2]): 215 nM
SMILES: Cc1ccc2c(N[C@@H](C)c3ccc(NC(=O)C4CCN(Cc5ccc(F)c(F)c5)CC4)cc3)nc(N(C)C)nc2c1 [Example 268, 1-(3,4-difluorobenzyl)-N-[4-((1S)-1-{[2-(dimethylamino)-7-methylquinazolin-4-yl]amino}ethyl)phenyl]piperidine-4-carboxamide]

IC50 (SV40-Luc; Homo sapiens, SV5A8, 24 h): > 5010 nM | IC50 (β-catenin/Tcf-4; [1]): 829 nM | IC50 (β-catenin/Tcf-4; [2]): 888 nM
SMILES: Cc1ccc2c(NCc3ccc(NC(=O)c4ccc(F)cc4)cc3)nc(NCCN3CCCC3)nc2c1 [Example 237, 4-fluoro-N-{4-[({7-methyl-2-[(2-pyrrolidin-1-ylethyl)amino]quinazolin-4-yl}amino)methyl]phenyl}benzamide]

IC50 (SV40-Luc; Homo sapiens, SV5A8, 24 h): > 9780 nM | IC50 (β-catenin/Tcf-4; [1]): 808 nM | IC50 (β-catenin/Tcf-4; [2]): 1110 nM
SMILES: CC(C)c1ccc2c(NCc3ccc(NC(=O)c4ccc(Cl)nc4)cc3)nc(N(C)C)nc2c1 [Example 62, 6-chloro-N-[4-({[2-(dimethylamino)-7-isopropylquinazolin-4-yl]amino}methyl)phenyl]nicotinamide]

IC50 (SV40-Luc; Homo sapiens, SV5A8, 24 h): > 10800 nM | IC50 (β-catenin/Tcf-4; [1]): > 5420 nM | IC50 (β-catenin/Tcf-4; [2]): > 5420 nM
SMILES: Cc1ccc2c(NCc3ccc(NC(=O)Nc4ccc(Cl)cc4)cc3)nc(N(C)C)nc2c1 [Example 177, N-(4-chlorophenyl)-N′-[4-({[2-(dimethylamino)-7-methylquinazolin-4-yl]amino}methyl)phenyl]urea]
